Measured values: patent US7183295B2, “PPAR-activating compound and pharmaceutical composition comprising the compound” (Kowa Co., Ltd., priority 2003, dated 2007)

Columns and labels:
Format in all cases: cell-based
[1] = target: T1, human PPARγ (182–505aa) ligand binding domain (Homo sapiens, UniProt P37231); assay: PPAR transfection (Gal4-LBD luciferase reporter) assay, hPPARγ; settings: for activation factor, hPPARγ (FIGS. 1 to 5): at 10-fold concentration of EC50 value in activation of hPPARα, ratio to DMSO control; for EC50: 16 hours, luciferase activity, read-out: hPPAR, EC50 γ (agonist activity)
T1 construct: γ(182–505aa); expressed in transfected cells; host or cells: COS-7
T1 sequence (P37231 182-505): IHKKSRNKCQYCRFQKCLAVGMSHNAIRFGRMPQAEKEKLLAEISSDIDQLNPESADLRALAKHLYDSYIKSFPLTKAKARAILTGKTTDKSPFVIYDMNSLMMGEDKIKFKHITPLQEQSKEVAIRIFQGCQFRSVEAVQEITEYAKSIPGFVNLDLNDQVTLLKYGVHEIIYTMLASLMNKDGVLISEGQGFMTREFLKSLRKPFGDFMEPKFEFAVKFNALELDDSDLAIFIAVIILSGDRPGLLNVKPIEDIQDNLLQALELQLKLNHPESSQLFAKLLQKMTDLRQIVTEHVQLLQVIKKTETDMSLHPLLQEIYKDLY
Description: (§1) COS-7 cells, which is African green monkey kidney cell line, were used for all transfection assays. Cells were cultured in DMEM medium supplemented with 10% fetal bovine serum, glutamic acid, and an antibiotic under humidified 5% CO2 atmosphere.
(§2) Cells were transfected by lipofectamine reagent with a mixture containing expression plasmid, firefly luciferase reporter plasmid. And a β-galactosidase expression plasmid used as an internal control for transfection efficiency.
(§3) Transiently transfected cells were incubated with DMEM with 0.2% FCS with or without compound. And after 16 hours, luciferase activity and β-galactosidase activity of cell lysate were measured.
(§4) Each compound was dissolved in and diluted with dimethyl sulfoxide (DMSO), and the DMSO concentration of the DMEM medium (containing 0.2% serum) was adjusted to 0.1% upon treatment of cells.

[2] = target: T2, human PPARδ (137–441aa) ligand binding domain (Homo sapiens, UniProt Q03181); assay: PPAR transfection (Gal4-LBD luciferase reporter) assay, hPPARδ; settings: for activation factor, hPPARδ (FIGS. 1 to 5): at 10-fold concentration of EC50 value in activation of hPPARα, ratio to DMSO control; for EC50: 16 hours, luciferase activity, read-out: hPPAR, EC50 δ (agonist activity)
T2 construct: δ (137–441aa); expressed in transfected cells; host or cells: COS-7
T2 sequence (Q03181 137-441): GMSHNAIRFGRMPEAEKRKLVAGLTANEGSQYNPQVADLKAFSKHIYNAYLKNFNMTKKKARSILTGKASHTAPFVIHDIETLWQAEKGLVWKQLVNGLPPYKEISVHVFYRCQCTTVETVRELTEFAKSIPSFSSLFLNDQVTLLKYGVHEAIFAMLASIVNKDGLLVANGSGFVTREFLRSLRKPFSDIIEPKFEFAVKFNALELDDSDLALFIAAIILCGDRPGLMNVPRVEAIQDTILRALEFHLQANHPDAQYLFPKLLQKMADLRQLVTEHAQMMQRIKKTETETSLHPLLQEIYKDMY
Description: as §1, §2, §3, §4

[3] = target: T3, human PPARα (166–467aa) ligand binding domain (Homo sapiens, UniProt Q07869); assay: PPAR transfection (Gal4-LBD luciferase reporter) assay, hPPARα; settings: for EC50: 16 hours, luciferase activity, read-out: hPPAR, EC50 α (agonist activity)
T3 construct: human PPARα (166–467aa); expressed in transfected cells; host or cells: COS-7
T3 sequence (Q07869 166-467): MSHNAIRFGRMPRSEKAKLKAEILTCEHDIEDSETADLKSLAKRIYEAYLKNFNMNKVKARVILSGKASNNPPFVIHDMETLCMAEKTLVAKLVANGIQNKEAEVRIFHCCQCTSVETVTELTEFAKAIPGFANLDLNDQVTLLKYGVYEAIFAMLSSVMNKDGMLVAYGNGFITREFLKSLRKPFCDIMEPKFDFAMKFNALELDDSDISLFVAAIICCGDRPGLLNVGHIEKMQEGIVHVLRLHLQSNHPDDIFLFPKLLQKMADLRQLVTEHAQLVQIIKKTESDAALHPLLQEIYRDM
Description: as §1, §2, §3, §4

| SMILES | activation factor, hPPARγ (FIGS. 1 to 5) [1] | EC50 ([1]; transfected COS-7 cells) | activation factor, hPPARδ (FIGS. 1 to 5) [2] | EC50 ([2]; transfected COS-7 cells) | EC50 ([3]; transfected COS-7 cells) | activation of hPPARγ isoform ([1]; transfected COS-7 cells) | activation of hPPARδ isoform ([2]; transfected COS-7 cells) | activation factor, hPPARα (FIGS. 1 to 5) ([3]; at EC50 value in activation of hPPARα and at 10 times that concentration, ratio to DMSO control) | activation of hPPARα isoform ([3]; transfected COS-7 cells) |
| --- | --- | --- | --- | --- | --- | --- | --- | --- | --- |
| CC(C)(Oc1ccc(CCCN(CCc2ccccc2)c2nc3ccccc3[nH]2)cc1)C(=O)O [Compound C, reference compound] | activated no hPPAR isoform | – | activated no hPPAR isoform | – | – | no activation | no activation | activated no hPPAR isoform | no activation |
| CCC(Oc1cccc(CN(CCCOc2ccc(F)cc2)c2nc3ccccc3o2)c1)C(=O)O (stereo not drawn) [Example 1, 2-[3-[[N-(Benzoxazol-2-yl)-N-3-(4-fluorophenoxy)propyl]aminomethyl]phenoxy]butyric acid] | substantially no activation | > 100 µM | substantially no activation | 1.6 µM | 0.01 µM | – | – | – | – |
| CCC(Oc1cccc(CN(CCOc2ccc(Cl)cc2)c2nc3ccccc3o2)c1)C(=O)O (stereo not drawn) [Example 2, 2-[3-[[N-(Benzoxazol-2-yl)-N-2-(4-chlorophenoxy)ethyl]aminomethyl]phenoxy]butyric acid] | substantially no activation | 7.3 µM | substantially no activation | 2.5 µM | 0.01 µM | – | – | – | – |
| CCC(Oc1cccc(CN(CCOc2ccc(F)cc2)c2nc3ccccc3o2)c1)C(=O)O (stereo not drawn) [Example 3, 2-[3-[[N-(Benzoxazol-2-yl)-N-2-(4-fluorophenoxy)ethyl]aminomethyl]phenoxy]butyric acid] | – | > 100 µM | – | 1.8 µM | 0.01 µM | – | – | – | – |
| CC(C)(Oc1cccc(CN(CCOc2ccc(Cl)cc2)c2nc3ccccc3o2)c1)C(=O)O [Example 6, 2-[3-[[N-(Benzoxazol-2-yl)-N-2-(4-chlorophenoxy)ethyl]aminomethyl]phenoxy]-2-methylpropionic acid] | – | 3.5 µM | – | > 100 µM | 0.07 µM | – | – | – | – |
| O=C(O)COc1cccc(CN(CCCOc2ccccc2)c2nc3ccccc3o2)c1 [Example 12, 3-[[N-(Benzoxazol-2-yl)-N-3-phenoxypropyl]aminomethyl]phenoxyacetic acid] | – | > 100 µM | – | > 100 µM | 1.2 µM | – | – | – | – |
| CCC(Oc1cccc(CN(CCCOc2ccccc2)c2nc3ccccc3o2)c1)C(=O)O (stereo not drawn) [Example 13, 2-[3-[[N-(Benzoxazol-2-yl)-N-3-phenoxypropyl]aminomethyl]phenoxy]butyric acid] | – | > 50 µM | – | 2 µM | 0.01 µM | – | – | – | – |
| CCC(Oc1cccc(CN(CCCOc2ccc(OC)cc2)c2nc3ccccc3o2)c1)C(=O)O (stereo not drawn) [Example 14, 2-[3-[[N-(Benzoxazol-2-yl)-N-3-(4-methoxyphenoxy)propyl]aminomethyl]phenoxy]butyric acid] | – | > 100 µM | – | 1.7 µM | – | – | – | – | – |
| COc1ccc(OCCCN(Cc2cccc(OC(C)(C)C(=O)O)c2)c2nc3ccccc3o2)cc1 [Example 15, 2-[3-[[N-(Benzoxazol-2-yl)-N-3-(4-methoxyphenoxy)propyl]aminomethyl]phenoxy]-2-methylpropionic acid] | – | > 100 µM | – | 1.5 µM | 0.05 µM | – | – | – | – |
| CC(Oc1cccc(CCN(CCOc2ccccc2)c2nc3ccccc3o2)c1)C(=O)O (stereo not drawn) [Example 31, 2-[3-[2-[N-(Benzoxazol-2-yl)-N-2-phenoxyethyl]aminoethyl]phenoxy]propionic acid] | – | > 100 µM | – | > 50 µM | 0.09 µM | – | – | – | – |
| CC(Oc1cccc(CCN(CCOc2ccc(F)cc2)c2nc3cc(Cl)ccc3o2)c1)C(=O)O (stereo not drawn) [Example 36, 2-[3-[2-[N-(5-Chlorobenzoxazol-2-yl)-N-2-(4-fluorophenoxy)ethyl]aminoethyl]phenoxy]propionic acid] | – | 2.1 µM | – | 1.6 µM | 0.05 µM | – | – | – | – |
| COc1ccc2oc(N(CCOc3ccc(F)cc3)CCc3cccc(OC(C)C(=O)O)c3)nc2c1 (stereo not drawn) [Example 37, 2-[3-[2-[N-2-(4-Fluorphenoxy)ethyl-N-(5-methoxybenzoxazol-2-yl)]aminoethyl]phenoxy]propionic acid] | – | 4.2 µM | – | 1.5 µM | 0.07 µM | – | – | – | – |

The next lines start with the values.

| activation factor, hPPARγ (FIGS. 1 to 5) [1] | EC50 ([1]; transfected COS-7 cells) | activation factor, hPPARδ (FIGS. 1 to 5) [2] | EC50 ([2]; transfected COS-7 cells) | EC50 ([3]; transfected COS-7 cells) | activation of hPPARγ isoform ([1]; transfected COS-7 cells) | activation of hPPARδ isoform ([2]; transfected COS-7 cells) | activation factor, hPPARα (FIGS. 1 to 5) ([3]; at EC50 value in activation of hPPARα and at 10 times that concentration, ratio to DMSO control) | activation of hPPARα isoform ([3]; transfected COS-7 cells) | SMILES |
| --- | --- | --- | --- | --- | --- | --- | --- | --- | --- |
| strongly activate | 0.2 µM | strongly activate | 0.4 µM | 0.1 µM | – | – | – | – | CC(C)(Oc1ccc(CCCN(CCc2ccccc2)c2nc3ccccc3s2)cc1)C(=O)O [Compound A] |
| strongly activate | 0.7 µM | strongly activate | 0.9 µM | 0.12 µM | – | – | – | – | CC(C)(Oc1ccc(CCCN(CCc2ccccc2)C(=O)c2nc3ccccc3s2)cc1)C(=O)O [Compound B, reference compound] |
| – | 1.2 µM | – | 2.4 µM | 0.01 µM | – | – | – | – | CC(Oc1cccc(CN(CCCOc2ccccc2)c2nc3ccccc3o2)c1)C(=O)O (stereo not drawn) [Example 9, 2-[3-[[N-(Benzoxazol-2-yl)-N-3-phenoxypropyl]aminomethyl]phenoxy]propionic acid] |
| – | 1.2 µM | – | > 100 µM | 0.07 µM | – | – | – | – | CC(Oc1cccc(CN(CCOc2ccccc2)c2nc3ccccc3o2)c1)C(=O)O (stereo not drawn) [Example 18, 2-[3-[[N-(Benzoxazol-2-yl)-N-2-phenoxyethyl]aminomethyl]phenoxy]propionic acid] |
| – | 1.2 µM | – | > 100 µM | 0.0001 µM | – | – | – | – | CC(Oc1cccc(CN(CCCOc2cccc(N(C)C)c2)c2nc3ccccc3o2)c1)C(=O)O (stereo not drawn) [Example 19, 2-[3-[[N-(Benzoxazol-2-yl)-N-3-(3-dimethylaminophenoxy)propyl]aminomethyl]phenoxy]propionic acid] |
| – | 1.2 µM | – | 2 µM | 0.01 µM | – | – | – | – | COc1ccc(OCCCN(Cc2cccc(OC(C)C(=O)O)c2)c2nc3ccccc3o2)cc1 (stereo not drawn) [Example 20, 2-[3-[[N-(Benzoxazol-2-yl)-N-3-(4-methoxyphenoxy)propyl]aminomethyl]phenoxy]propionic acid] |
| – | 1.4 µM | – | 2.3 µM | 0.03 µM | – | – | – | – | CCC(Oc1cccc(CN(CCOc2ccccc2)c2nc3ccccc3o2)c1)C(=O)O (stereo not drawn) [Example 24, 2-[3-[[N-(Benzoxazol-2-yl)-N-2-phenoxyethyl]aminomethyl]phenoxy]butyric acid] |
| – | 1.2 µM | – | 1.6 µM | 0.06 µM | – | – | – | – | CC(Oc1cccc(CCN(CCOc2ccc(F)cc2)c2nc3ccccc3o2)c1)C(=O)O (stereo not drawn) [Example 34, 2-[3-[2-[N-(Benzoxazol-2-yl)-N-2-(4-fluorophenoxy)ethyl]aminoethyl]phenoxy]propionic acid] |
| – | 1.2 µM | – | 1.6 µM | 0.02 µM | – | – | – | – | CC(Oc1cccc(CCN(CCOc2ccc(F)cc2)c2nc3cc(F)ccc3o2)c1)C(=O)O (stereo not drawn) [Example 35, 2-[3-[2-[N-(5-Fluorobenzoxazol-2-yl)-N-2-(4-fluorophenoxy)ethyl]aminoethyl]phenoxy]propionic acid] |
| – | 1.5 µM | – | 1.4 µM | 0.05 µM | – | – | – | – | CCC(Oc1cccc(CCN(CCCOc2ccccc2)c2nc3ccccc3o2)c1)C(=O)O (stereo not drawn) [Example 38, 2-[3-[2-[N-(Benzoxazol-2-yl)-N-3-phenoxypropyl]aminoethyl]phenoxy]butyric acid] |
| – | 1.1 µM | – | 1.6 µM | – | – | – | – | – | CC[C@@H](Oc1cccc(CN(CCCOc2ccc(OC)cc2)c2nc3ccccc3o2)c1)C(=O)O [Example 85, (R)-2-[[3-[N-(Benzoxazol-2-yl)-N-3-(4-methoxyphenoxy)propyl]aminomethyl]phenoxy]butyric acid] |
